Assays:
[1] = system: HIV-1 gag/pol −1 frameshift signal sequence (HIV-1 frameshift construct); assay: Dual fluorescent reporter (EGFP/DsRed) recoding assay in transiently transfected COS-7 cells, with Null 0 control construct; format: cell-based; settings: for Minus 1 Frameshift Construct EGFP signal, Average / Null 0 Frameshift Construct EGFP signal, Average: 485 excitation 520-P emission; for Minus 1 Frameshift Construct DsRed signal, Average / Null 0 Frameshift Construct DsRed signal, Average: 525 excitation 600LP emission
Procedure: Mammalian COS-7 cells were grown, harvested, trypsinised, washed and diluted to 1×10^5 cells/ml all under standard conditions.
The diluted cells were then split into two equal portions. One portion was transiently transfected with the recoding construct, and other with the Null 0 frame control construct. Transient transfection was performed using 2 μL of FuGENE® 6 transfection reagent (Roche) and 500 ng of DNA for every mL of cells, in accordance with the manufacturing instructions.
Transfected cells were seeded in 24 well plates under standard conditions. Cycloheximide was added in triplicate at 50 nM and the plates were then incubated for 48 hours at 37° C.
The cells were washed 3 times with Phosphate Buffered Saline (PBS) to remove any traces of culture medium. 100 ul of Passive Lysis buffer (Promega) was added. The cells were frozen. The frozen cells were then thawed and transferred to a 96 well plate, and fluorescence intensity was read in the BMG PolarStar plate reader.
Plate reader settings were as follows:
Filters 485 excitation, 520-P emission
Filters 544 excitation, 590 emission
[[DsRed signal: HIV-1 frameshift construct]/[EGFP signal: HIV-1 frameshift construct]]/[[DsRed signal: Null 0 frameshift construct]/[EGFP signal: Null 0 frameshift construct]]
The diluted cells were then split into two equal portions. One portion was transfected, as described in Example 3, with the recoding construct, and other with the Null 0 frame control construct.
Cells were then seeded in 24 well plates under standard conditions. Anisomycin was added in triplicate at 50 nM and the plates were then incubated for 48 hours at 37° C.
The cells were prepared as described in examples 3 and 4.
DsRed signal at 525 excitation, 600LP emission
EGFP signal at 485 excitation, 520-P emission
Frameshift figures, shown in Table 5, were calculated using the formula shown in Example 3 using data from Tables 1, 2, 3 and 4.
Transfected cells were prepared as described in Example 5, and treated with 0 nM (no drug) 100 nM, 200 nM, 300 nM, 400 nM and 500 nM concentrations of anisomycin.
Incubation, plate reader setting and readings were as described in Example 5.
For the anisomycin titrations, the frameshift figures, shown in Table 10, were calculated using the formula shown in Example 3 using data from Tables 6, 7, 8 and 9.

[2] = system: HIV-1 gag/pol −1 frameshift signal sequence (HIV-1 frameshift construct); assay: Stably transfected dual fluorescent reporter recoding assay in Flp-In CV1 cells (−1 frame construct); format: cell-based; settings: for DsRed/EGFP ratio / Percentage decrease in ratio / Minus 1 Frameshift Construct EGFP signal, Average / Minus 1 Frameshift Construct DsRed signal, Average: 120 hours; for DsRed/EGFP ratio / Percentage decrease in ratio: stable Flp-In CV1 cells; for DsRed/EGFP ratio: not normalised to Null 0, expressed as a percentage; for Percentage decrease in ratio: vs no drug; for Minus 1 Frameshift Construct EGFP signal, Average: 485 excitation 515 emission; for Minus 1 Frameshift Construct DsRed signal, Average: 535 excitation 590 emission
Procedure: The translational recoding construct described above was excised via Hind III and Not I restrictions sites and ligated into a Flp-In™ pcDNA5/FRT expression vector (Invitrogen Life Technologies) before being stably transformed into Flp-In™ CV1 cells (Invitrogen Life Technologies) according to the manufacturer's instructions.
Flp-In CV1 cells (CV1 cells), as described in Example 2, transfected with the −1 frame construct, and untransfected CV1 cells were grown, harvested, trypsinised, washed and diluted to 1×10^5 cells/ml all under standard conditions.
Cells were then seeded in 96 well plates under standard conditions. The plates were then incubated for 120 hours at 37° C.
The cells were washed 3 times with Phosphate Buffered Saline (PBS) to remove any traces of culture medium. 100 ul of Passive Lysis buffer (Promega) was added. The cells were frozen. The frozen cells were then thawed and fluorescence intensity was read in the Tecan Genios Pro plate reader.
Plate reader setting were as follows:
Filters 485 excitation, 515 emission
Filters 535 excitation, 590 emission
As a Null 0 frameshift construct was not used in this experiment ratios of the DsRed to EGFP signal were calculated to take into account the decrease in the EGFP signal with increasing drug concentrations.
The calculation was similar to example 3, with the counts averaged, the control cell counts removed before working out the ratio of the DsRed signal to the EGFP signal. Normalisation using a Null 0 frame construct could not be performed, with the results below being expressed as a percentage. The calculation was a follows: [[DsRed signal: HIV-1 frameshift construct]/[EGFP signal: HIV-1 frameshift construct]]

[3] = 50 nM, 48 hours, 485 excitation, 520-P emission
[4] = 50 nM, 48 hours, 544 excitation, 590 emission
[5] = 100 nM, COS-7, 525/600LP filters, vs no drugs

With COc1ccc(C[C@H]2NC[C@H](O)[C@H]2OC(C)=O)cc1 [Anisomycin] the “decrease in frameshift from the original (no drug) value” ([1]; 50 nM, 48 hours, COS-7, 544/590 filters) was 5.3%, the Frameshift ([1]; 50 nM, 48 hours, COS-7, DsRed 544 excitation/590 emission, EGFP 485/520-P, normalised to Null 0 construct) was 5.64% and the “absolute change frameshift efficiency” value ([1]; 50 nM, 48 hours, COS-7, vs no drug control, 544/590 filters) was 0.32%. For the same compound, the “EGFP signal, HIV-1 frameshift construct, average” value [1, 3] was 32666 RFU, the “EGFP signal, HIV-1 frameshift construct, average minus control” value [1, 3] was 32336 RFU and the “EGFP signal, Null 0 frameshift construct, average” value [1, 3] was 56491 RFU. For the same compound, the “EGFP signal, Null 0 frameshift construct, average minus control” value [1, 3] was 56161 RFU, the “DsRed signal, HIV-1 frameshift construct, average” value [1, 4] was 1975 RFU and the “DsRed signal, HIV-1 frameshift construct, average minus control” value [1, 4] was 1891 RFU. For the same compound, the “DsRed signal, Null 0 frameshift construct, average” value [1, 4] was 58293 RFU, the “DsRed signal, Null 0 frameshift construct, average minus control” value [1, 4] was 58209 RFU and the “Minus 1 Frameshift Construct EGFP signal, Average” value ([1]; 100 nM) was 31923. For the same compound, the “Null 0 Frameshift Construct EGFP signal, Average” value ([1]; 100 nM) was 55732, the “Minus 1 Frameshift Construct DsRed signal, Average” value ([1]; 100 nM) was 3072 and the “Null 0 Frameshift Construct DsRed signal, Average” value ([1]; 100 nM) was 55345. For the same compound, the “Percentage decrease in frameshift” value [1, 5] was 1.39%, the “absolute change in frameshift efficiency” value [1, 5] was 0.11% and the “Percentage decrease in frameshift” value ([1]; 100 nM, COS-7, 525/600LP filters, vs no drugs, listed as anisomycin) was 1.4%. For the same compound, the Frameshift ([1]; 100 nM, COS-7, DsRed 525 excitation/600LP emission) was 7.89%, the Frameshift ([1]; 100 nM, COS-7, DsRed 525 excitation/600LP emission, listed as anisomycin) was 7.88% and the “Minus 1 Frameshift Construct EGFP signal, Average” value ([1]; 200 nM) was 37862. The “Null 0 Frameshift Construct EGFP signal, Average” value ([1]; 200 nM) was 51856, the “Minus 1 Frameshift Construct DsRed signal, Average” value ([1]; 200 nM) was 3555 and the “Null 0 Frameshift Construct DsRed signal, Average” value ([1]; 200 nM) was 50020. The “Percentage decrease in frameshift” value ([1]; 200 nM, COS-7, 525/600LP filters, vs no drugs) was −2.21%, the Frameshift ([1]; 200 nM, COS-7, DsRed 525 excitation/600LP emission) was 8.17% and the “Minus 1 Frameshift Construct EGFP signal, Average” value ([1]; 300 nM) was 32560. The “Null 0 Frameshift Construct EGFP signal, Average” value ([1]; 300 nM) was 38929, the “Minus 1 Frameshift Construct DsRed signal, Average” value ([1]; 300 nM) was 2995 and the “Null 0 Frameshift Construct DsRed signal, Average” value ([1]; 300 nM) was 36774. For the same compound, the “Percentage decrease in frameshift” value ([1]; 300 nM, COS-7, 525/600LP filters, vs no drugs) was 1.47%, the Frameshift ([1]; 300 nM, COS-7, DsRed 525 excitation/600LP emission) was 7.88% and the “Minus 1 Frameshift Construct EGFP signal, Average” value ([1]; 400 nM) was 18630. The “Null 0 Frameshift Construct EGFP signal, Average” value ([1]; 400 nM) was 18532, the “Minus 1 Frameshift Construct DsRed signal, Average” value ([1]; 400 nM) was 1804 and the “Null 0 Frameshift Construct DsRed signal, Average” value ([1]; 400 nM) was 16734. The “Percentage decrease in frameshift” value ([1]; 400 nM, COS-7, 525/600LP filters, vs no drugs) was 8.53%, the Frameshift ([1]; 400 nM, COS-7, DsRed 525 excitation/600LP emission) was 7.32% and the “Minus 1 Frameshift Construct EGFP signal, Average” value ([1]; 500 nM) was 9376. The “Null 0 Frameshift Construct EGFP signal, Average” value ([1]; 500 nM) was 8119, the “Minus 1 Frameshift Construct DsRed signal, Average” value ([1]; 500 nM) was 1121 and the “Null 0 Frameshift Construct DsRed signal, Average” value ([1]; 500 nM) was 7045. For the same compound, the “Percentage decrease in frameshift” value ([1]; 500 nM, COS-7, 525/600LP filters, vs no drugs) was 16.21%, the Frameshift ([1]; 500 nM, COS-7, DsRed 525 excitation/600LP emission) was 6.70% and the “effect on −1 frameshifting” value ([1]; result in words) was “antagonists to −1 frameshifting”. The DsRed/EGFP ratio ([2]; 50 nM) was 7.81%, the “Percentage decrease in ratio” value ([2]; 50 nM) was −1.47% and the “Minus 1 Frameshift Construct EGFP signal, Average” value ([2]; 50 nM) was 12588. For the same compound, the “Minus 1 Frameshift Construct DsRed signal, Average” value ([2]; 50 nM) was 1348, the DsRed/EGFP ratio ([2]; 100 nM) was 7.60% and the “Percentage decrease in ratio” value ([2]; 100 nM) was 1.17%. For the same compound, the “Minus 1 Frameshift Construct EGFP signal, Average” value ([2]; 100 nM) was 12188, the “Minus 1 Frameshift Construct DsRed signal, Average” value ([2]; 100 nM) was 1301 and the DsRed/EGFP ratio ([2]; 500 nM) was 1.44%. For the same compound, the “Percentage decrease in ratio” value ([2]; 500 nM) was 81.34%, the “Minus 1 Frameshift Construct EGFP signal, Average” value ([2]; 500 nM) was 8977 and the “Minus 1 Frameshift Construct DsRed signal, Average” value ([2]; 500 nM) was 795. For the same compound, the DsRed/EGFP ratio ([2]; 1000 nM) was −0.81%, the “Percentage decrease in ratio” value ([2]; 1000 nM) was 110.53% and the “Minus 1 Frameshift Construct EGFP signal, Average” value ([2]; 1000 nM) was 8386. The “Minus 1 Frameshift Construct DsRed signal, Average” value ([2]; 1000 nM) was 704, the DsRed/EGFP ratio ([2]; 2000 nM) was −3.13% and the “Percentage decrease in ratio” value ([2]; 2000 nM) was 140.70%. For the same compound, the “Minus 1 Frameshift Construct EGFP signal, Average” value ([2]; 2000 nM) was 7681, the “Minus 1 Frameshift Construct DsRed signal, Average” value ([2]; 2000 nM) was 641 and the “% decrease in ratio over concentration range” value ([2]; range between 50 nM and 2000 nM, stable cells, result in words) was “dose responsive effect”.
